Assay results reported in article PMC9822066 (Molecules, 2022).
“And” between values parts separate entries of the source, which are not always exact repeats. Equal values may be shown once. Read-outs that look alike come from different tables or passages of the source.

Key:
[1] = PAMPA, triplicate
[2] = target: BuChE from equine serum (eqBuChE) (Equus caballus, UniProt P81908); assay: biochemical; format: biochemical; conditions: mean ± SEM, triplicate independent experiments
[3] = target: T1, human recombinant AChE (hAChE) (Homo sapiens, UniProt P22303); assay: Ellman's colorimetric assay, hAChE inhibition; format: biochemical
T1 construct: purchased Sigma–Aldrich (Steinheim, Germany)
T1 sequence (P22303 32-614): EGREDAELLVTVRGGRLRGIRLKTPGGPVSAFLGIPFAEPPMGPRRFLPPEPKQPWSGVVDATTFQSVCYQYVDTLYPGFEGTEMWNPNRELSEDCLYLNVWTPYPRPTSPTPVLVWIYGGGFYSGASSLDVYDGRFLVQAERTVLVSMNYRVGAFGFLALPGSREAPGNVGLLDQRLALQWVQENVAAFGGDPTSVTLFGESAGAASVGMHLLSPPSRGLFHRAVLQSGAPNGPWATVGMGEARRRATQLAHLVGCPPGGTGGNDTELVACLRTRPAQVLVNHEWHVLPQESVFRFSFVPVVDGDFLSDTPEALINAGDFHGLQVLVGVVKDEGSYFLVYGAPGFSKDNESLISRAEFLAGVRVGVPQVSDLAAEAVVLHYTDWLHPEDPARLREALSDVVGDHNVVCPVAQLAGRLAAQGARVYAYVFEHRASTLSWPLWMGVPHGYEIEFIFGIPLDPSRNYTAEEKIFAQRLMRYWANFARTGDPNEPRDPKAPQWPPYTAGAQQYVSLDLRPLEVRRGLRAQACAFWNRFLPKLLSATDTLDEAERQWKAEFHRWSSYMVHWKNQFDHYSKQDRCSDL

[4] = target: T2, electric eel AChE (eeAChE) (Electrophorus electricus, UniProt O42275); assay: biochemical; conditions: mean ± SEM, triplicate independent experiments; read-out: eeAChE IC50
T2 construct: purchased Sigma–Aldrich (Steinheim, Germany)
T2 sequence (O42275 24-633): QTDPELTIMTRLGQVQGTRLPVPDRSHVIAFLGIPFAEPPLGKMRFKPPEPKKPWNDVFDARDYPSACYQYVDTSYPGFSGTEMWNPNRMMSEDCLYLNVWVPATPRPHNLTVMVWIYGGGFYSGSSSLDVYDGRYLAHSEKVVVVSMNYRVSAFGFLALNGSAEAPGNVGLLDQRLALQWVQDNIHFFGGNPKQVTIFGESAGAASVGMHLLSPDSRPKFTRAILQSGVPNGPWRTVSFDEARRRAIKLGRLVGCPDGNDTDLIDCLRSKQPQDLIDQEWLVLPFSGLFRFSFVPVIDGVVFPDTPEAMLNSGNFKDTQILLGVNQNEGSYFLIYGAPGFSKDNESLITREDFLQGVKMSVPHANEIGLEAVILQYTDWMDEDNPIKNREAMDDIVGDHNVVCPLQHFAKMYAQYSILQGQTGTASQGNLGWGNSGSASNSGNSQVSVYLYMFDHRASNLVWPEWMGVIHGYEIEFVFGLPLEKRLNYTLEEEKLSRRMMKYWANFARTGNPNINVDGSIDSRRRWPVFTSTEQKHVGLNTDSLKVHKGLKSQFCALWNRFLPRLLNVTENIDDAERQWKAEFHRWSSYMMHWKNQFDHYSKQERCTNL

hMAO B = target: T3, hMAO B (Homo sapiens, UniProt P27338); assay: Fluorometric MAO assay, hMAO B inhibition; format: biochemical; conditions: mean ± SEM of two independent experiments, read-out: hMAO B %Inh. at 1 µM
T3 sequence (P27338 1-520): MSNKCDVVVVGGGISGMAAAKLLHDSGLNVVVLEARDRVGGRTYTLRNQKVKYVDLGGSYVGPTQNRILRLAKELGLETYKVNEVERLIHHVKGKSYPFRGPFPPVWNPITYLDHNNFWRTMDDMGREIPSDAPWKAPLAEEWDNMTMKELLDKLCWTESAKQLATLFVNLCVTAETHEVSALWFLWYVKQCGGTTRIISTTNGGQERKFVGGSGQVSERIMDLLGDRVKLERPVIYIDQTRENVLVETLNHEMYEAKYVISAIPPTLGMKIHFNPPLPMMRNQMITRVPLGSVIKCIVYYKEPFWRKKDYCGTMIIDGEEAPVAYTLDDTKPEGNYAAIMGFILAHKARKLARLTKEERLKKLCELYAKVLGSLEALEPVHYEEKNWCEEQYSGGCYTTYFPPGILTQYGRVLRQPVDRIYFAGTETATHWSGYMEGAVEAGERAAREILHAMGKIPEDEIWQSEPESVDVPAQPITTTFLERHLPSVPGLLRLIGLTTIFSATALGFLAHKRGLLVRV

[5] = target: T4, BuChE from human serum (hBuChE) (Homo sapiens, UniProt P06276); assay: Ellman's colorimetric assay, hBuChE inhibition; format: biochemical
T4 construct: Human BuChE from human serum was provided by Vivonics (Bedford, MA, USA); purchased Vivonics (Bedford, MA, USA); host or cells: human serum
T4 sequence (P06276 29-602): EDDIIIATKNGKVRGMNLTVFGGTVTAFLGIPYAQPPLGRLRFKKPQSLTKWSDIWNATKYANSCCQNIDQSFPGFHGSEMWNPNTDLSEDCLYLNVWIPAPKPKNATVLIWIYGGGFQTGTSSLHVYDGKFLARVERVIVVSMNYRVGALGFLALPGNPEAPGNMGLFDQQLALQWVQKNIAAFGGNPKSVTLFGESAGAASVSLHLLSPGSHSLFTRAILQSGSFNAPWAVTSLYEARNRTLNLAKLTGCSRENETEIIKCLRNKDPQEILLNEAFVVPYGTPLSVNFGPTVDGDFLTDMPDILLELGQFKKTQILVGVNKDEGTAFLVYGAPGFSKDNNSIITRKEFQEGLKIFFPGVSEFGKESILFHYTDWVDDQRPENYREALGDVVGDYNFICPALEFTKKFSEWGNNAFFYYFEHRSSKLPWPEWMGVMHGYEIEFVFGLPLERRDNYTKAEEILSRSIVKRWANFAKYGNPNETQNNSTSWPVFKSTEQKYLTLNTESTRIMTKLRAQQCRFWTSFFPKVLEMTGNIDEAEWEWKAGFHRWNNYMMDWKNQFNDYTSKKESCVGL

[6] = system: SH-SY5Y neuroblastoma cells; assay: Highest non-toxic concentration estimated before the neuroprotection assay; format: cell-based
Description: […]. however, it was statistically insignificant. […] Statistical significance was calculated against the number of necrotic cells in the H2O2-treated population. Additionally, the MTS test was performed in which the viability of cells was measured.

eqBuChE = eqBuChE (Equus caballus, UniProt P81908); assay: Kinetic study of eqBuChE inhibition (Lineweaver-Burk, Cornish-Bowden); format: biochemical, equine; conditions: substrate butyrylthiocholine
Chain of eqBuChE (P81908 whole entry): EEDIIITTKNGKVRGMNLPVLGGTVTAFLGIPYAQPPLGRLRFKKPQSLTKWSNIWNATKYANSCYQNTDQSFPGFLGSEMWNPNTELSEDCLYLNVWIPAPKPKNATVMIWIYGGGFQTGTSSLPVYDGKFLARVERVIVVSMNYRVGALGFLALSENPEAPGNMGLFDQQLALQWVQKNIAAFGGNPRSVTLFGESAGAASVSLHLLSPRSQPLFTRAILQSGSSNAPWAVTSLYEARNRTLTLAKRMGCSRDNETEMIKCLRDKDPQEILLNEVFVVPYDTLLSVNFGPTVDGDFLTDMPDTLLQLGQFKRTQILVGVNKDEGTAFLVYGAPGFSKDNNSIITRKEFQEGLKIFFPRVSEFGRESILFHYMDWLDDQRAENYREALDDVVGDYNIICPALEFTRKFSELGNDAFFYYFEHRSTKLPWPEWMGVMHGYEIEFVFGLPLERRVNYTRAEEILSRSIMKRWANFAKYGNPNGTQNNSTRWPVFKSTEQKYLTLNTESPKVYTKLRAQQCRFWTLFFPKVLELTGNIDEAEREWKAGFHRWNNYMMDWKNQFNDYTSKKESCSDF
Description: (§1) The inhibitor was tested in the concentrations giving enzyme activities between 30% and 80%. For each concentration of the inhibitor, substrate (ATC/BTC) was added at concentrations of 0.3, 0.24, 0.18, 0.12, 0.06, and 0.04 mM in the wells. The stock solutions of ATC and BTC (0.5 mM) were prepared in water and diluted before use. Each experiment was performed in triplicate. Vmax and Km values of the Michaelis−Menten kinetics were calculated by nonlinear regression from substrate−velocity curves. Lineweaver–Burk and Cornish–Bowden plots were calculated using linear regression in GraphPad Prism 5 (GraphPad Software, San Diego, CA, USA).

hepatoma HepG2 cells = assay: Hepatotoxicity, MTS viability of HepG2 cells
Description: Doxorubicin (DX) at the concentration of 1 μM was used as the reference cytostatic drug.
A multifunctional reader EnSpire (PerkinElmer, Waltham, MA, USA) was used to measure the absorbance.

[7] = Metabolic stability in mouse liver microsomes; format: in vitro ADME
Description: The metabolic stability of 6 was investigated first in silico with the use of MetaSite 6.0.1 software.
The in silico prediction of the most possible metabolic pathways was conducted by MetaSite 6.0.1. Software (Molecular Discovery Ltd., Borehamwood, UK). […] The compound was incubated for 120 min at 37 °C in TRIS-HCl buffer (pH 7.4) with the addition of NADPH Regeneration System (Promega, Madison, WI, USA). The LC/MS analysis and MS/MS fragmentations were used as a tool for the determination of the substrate remaining and the structures of the metabolites.

human H3R = target: T5, human H3R (Homo sapiens, UniProt Q9Y5N1); assay: [3H]Nα-methylhistamine radioligand binding assay in HEK293 cells stably expressing hH3R
T5 construct: expressed in transfected cells; host or cells: HEK293
T5 sequence (Q9Y5N1 whole entry): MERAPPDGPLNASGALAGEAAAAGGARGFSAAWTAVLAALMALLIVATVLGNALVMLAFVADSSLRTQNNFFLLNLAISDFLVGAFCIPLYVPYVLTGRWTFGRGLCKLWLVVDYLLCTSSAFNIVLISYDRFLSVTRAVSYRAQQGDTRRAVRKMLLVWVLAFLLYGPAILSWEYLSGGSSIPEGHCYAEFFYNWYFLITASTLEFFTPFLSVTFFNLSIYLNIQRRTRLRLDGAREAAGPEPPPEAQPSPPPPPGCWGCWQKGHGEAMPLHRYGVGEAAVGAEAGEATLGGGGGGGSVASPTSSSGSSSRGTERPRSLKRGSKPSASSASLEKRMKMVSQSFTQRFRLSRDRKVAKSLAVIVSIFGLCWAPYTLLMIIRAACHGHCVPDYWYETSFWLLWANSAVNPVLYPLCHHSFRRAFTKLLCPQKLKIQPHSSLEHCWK
Description: Final compounds were tested for their H3R affinity in a radioligand binding assay using [^3H]N^α-methylhistamine as radioligand in HEK293 cells stably expressing hH3R [25]. […] Affinity to hH3R stably expressed in HEK293 cells was evaluated in a radioligand binding assay as described previously. […] The radioactivity was counted in a MicroBeta Trilux counter (PerkinElmer). Data were fitted to a one-site curve-fitting equation with Prism 6 (GraphPad Software, San Diego, CA, USA) and Ki values were calculated from IC50 values (from at least three experiments performed in duplicates) according to the Cheng−Prusoff equation [52].

in vitro = conditions: PAMPA
[8] = system: SH-SY5Y neuroblastoma cells; assay: Neuroprotection against H2O2, LDH necrosis assay; format: cell-based; conditions: 300 µM H2O2, 24 h
mice [9] = assay: Passive Avoidance Test, scopolamine-induced amnesia; format: in vivo; parameters: unit not given here; conditions: mean ± SEM
[10] = system: SH-SY5Y neuroblastoma cells; assay: Neuroprotection against H2O2, MTS viability assay; format: cell-based; conditions: 300 µM H2O2, 24 h
mice [11] = assay: Formalin test; format: in vivo; conditions: Mus musculus, ip
eeAChE = target: T6, eeAChE (Electrophorus electricus, UniProt O42275); assay: Kinetic study of eeAChE inhibition (Lineweaver-Burk, Cornish-Bowden); format: biochemical, electric eel; conditions: substrate acetylthiocholine
T6 construct: purchased Sigma–Aldrich (Steinheim, Germany)
T6 sequence (O42275 24-633): as the sequence (O42275 24-633) above
Description: as §1

hH3R = conditions: cited from earlier work
human BuChE = conditions: Figure 1; read-out: hBuChE IC50; cited from earlier work
human AChE = conditions: Figure 1; read-out: hAChEI IC50; cited from earlier work
[12] = parameters: method as in PMID 32882609; conditions: Figure 1; cited from earlier work
human MAO B = conditions: cited from earlier work
electric eel AChE = system: electric eel AChE; parameters: method as in PMID 33991182, PMID 32882609, PMID 28832188, PMID 19222043, PMID 18396354; conditions: Figure 2; read-out: electric eelAChE IC50; cited from earlier work
equine BuChE = system: equine BuChE; parameters: method as in PMID 33991182, PMID 32882609, PMID 28832188, PMID 19222043, PMID 18396354; conditions: Figure 2; read-out: equineBuChE IC50; cited from earlier work

Chain of BuChE from equine serum (eqBuChE) (P81908 whole entry): as the sequence (P81908 whole entry) above

SMILES: Cn1c(=O)c2c(ncn2C)n(C)c1=O [Caffeine, reference compound]
- Pe ± SD [1]: 15.1 ± 0.4 10^−6 cm/s

SMILES: O=C(O)C(=O)O.O=C(c1ccc(F)cc1)c1ccc(OCCCCCN2CCCCC2)cc1 [Compound 6, (4-Fluorophenyl) (4-((5-(piperidin-1-yl)pentyl)oxy)phenyl)methanone hydrogen oxalate]
- IC50 [2]: 170 nM and 172 nM
- IC50 [3]: 9590 nM
- IC50 [4]: 2310 nM
- inhibition at 1 µM (hMAO B): 25%
- IC50 [5]: 1160 nM
- highest non-toxic concentration [6]: 10 µM
- mechanism of eqBuChE inhibition (eqBuChE): mix type
- concentration decreasing HepG2 cell viability (hepatoma HepG2 cells; 72 h incubation, MTS): ≥ 10 µM
- concentration range with lack of hepatotoxicity effect (hepatoma HepG2 cells; HepG2 cells): 0.1 to 1 µM
- % biotransformed ([7]; MLMs, 120 min, UPLC): around 34%
- % Remaining ([7]; MLMs, 120 min incubation): 65.95%
- Metabolic Pathway ([7]; MLMs, metabolites M1, M2, M3): reduction of carbonyl group hydroxylation reduction of carbonyl group, hydroxylation
- metabolic stability (in words) ([7]; mouse liver microsomes): moderate metabolic stability
- remaining at 2 h ([7]; mouse, mouse liver microsomes, pH 7.4, MLMs, 120 min incubation): 66%
- Pe ± SD [1]: 6.3 ± 0.6 10^−6 cm/s
- Ki (human H3R): 8 nM
- Papp (in vitro): 6.3 ×10⁻⁶ cm/s
- effect on necrosis (LDH test) ([8]; 10 µM): slight inhibition of the necrosis process
- latency time in the retention trial (mice [9]; 15 mg/kg i.p. in scopolamine-treated mice): 47.07 ± 17.56
- latency time in the retention trial (mice [9]; 15 mg/kg i.p., without scopolamine): 151.89 ± 5.46
- latency time in the retention trial (mice [9]; 30 mg/kg i.p. in scopolamine-treated mice): 51.56 ± 21.17
- effect on viability (MTS test) ([10]; 10 µM): no increase in the viability
- ED50 (mice [11]; 0–5 min after formalin, read-out: ED50 phase I (acute pain)): 20.9 mg/kg
- ED50 (mice [11]; 15–30 min after formalin, read-out: ED50 phase II (inflammatory pain)): 17.5 mg/kg
- mechanism of eeAChE inhibition (eeAChE): non-competitive

SMILES: O=c1c2ccccc2oc2ccc(OCCCCCN3CCCCCC3)cc12 [Compound I]
- Ki (hH3R; Figure 1, read-out: hH3R Ki): 170 nM
- IC50 (human BuChE): 1280 nM
- IC50 (human AChE): 390 nM
- in vivo activity [12]: significant memory-enhancing effect
- IC50 (human MAO B; Figure 1, read-out: hMAO B IC50): 780 nM

SMILES: CCN(CC)Cc1cc2c(=O)c3c(O)cccc3oc2cc1OCC=C(C)C [compound III]
- IC50 (electric eel AChE): 2600 nM
- IC50 (equine BuChE): 510 nM

SMILES: O=c1c2ccccc2oc2ccc(OCCCCCCN3CCCCCC3)cc12 [compound II]
- Ki (hH3R; Figure 2, read-out: humanH3R Ki): 500 nM
- IC50 (electric eel AChE): 310 nM
- IC50 (equine BuChE): 610 nM
- IC50 (human MAO B; Figure 2, read-out: humanMAOB IC50): 390 nM

SMILES: C[C@@H]1NCCc2cc(O)c(O)cc21 [salsolinol, reference compound]
- effect on necrosis (LDH test) ([8]; 50 µM): lowered the number of necrotic cells to the control level
- effect on viability (MTS test) ([10]; 50 µM): statistically significantly increased the number of living cells
